The values below come from US20240139170A1, “TOPICAL FORMULATIONS OF A JAK 1/3 INHIBITOR AND METHODS OF USE THEREOF FOR TREATMENT OF ATOPIC DERMATITIS AND OTHER SKIN CONDITIONS” (ACLARIS THERAPEUTICS, INC., priority 2021, published 2024).

Some results are limits rather than exact numbers.

A short description of the series: Phase 2a study, plasma pharmacokinetics. The format is in vivo, human.

Turning to `CCOC(=O)c1cnc2[nH]ccc2c1N[C@@H]1CCCN(C(=O)CC#N)C1` [Compound I, ethyl (R)-4-((1-(2-cyanoacetyl)piperidin-3-yl)amino)-1H-pyrrolo[2,3-b]pyridine-5-carboxylate], the “Plasma Compound I CONC” value (subject 004-0002, Day 8, hour 0 Predose) was 0.188 ng/mL; the “Plasma Compound I CONC” value (subject 004-0002, Day 15, hour 0 Predose) was found to be 0.100 ng/mL; the “Plasma Compound I CONC” value (subject 004-0004, Day 15, hour 0 Predose, LLOQ 0.100) was “<LLOQ”; the “Plasma Compound I CONC” value (subject 004-0008, Day 1, hour 0 Predose, LLOQ 0.100) is listed as “<LLOQ”; the “Plasma Compound I CONC” value (subject 012-0001, Day 8, hour 0 Predose) is on record as 1.43 ng/mL; the “Plasma Compound I CONC” value (subject 13-0001, Day 15, hour 0 Predose) was 0.598 ng/mL.
